The values below are quoted from earlier work in patent US20230080958A1, “METHODS OF TREATING PSEUDOBULBAR AFFECT AND OTHER EMOTIONAL DISTURBANCES” (Woolsey Pharmaceuticals, Inc., priority 2020, published 2023).

The structures appear in SMILES notation.

Data set [1] relates to patients with sub-cortical vascular dementia.
The conditions of data set [2]: 1-hydroxy (M3) metabolite, in vivo (Shibuya 2001).

`O=S(=O)(c1cccc2cnccc12)N1CCCNCC1` [fasudil, hexahydro-1-(5-isoquinolinesulfonyl)-1H-1,4-diazepine]: the “emotional incontinence (compulsive laughing and/or crying)” value in data set [1] (Kamei publication and Japanese patent application 6-293643, three patients, no assessment or diagnosis of PBA) was “improvements”. Moreover, the “wandering (primary outcome)” value in data set [1] (two patients with sub-cortical vascular dementia, open-label, no control group, concomitant medications (Kamei 1996)) was “mitigated wandering”.

Regarding `O=S(=O)(c1cccc2c(O)nccc12)N1CCCNCC1` [M3], in data set [2], the half-life entry is reported as “about 8 hours”.
